Test results: patent US4439426A, “Semisynthetic macrolidic antibiotics, intermediate compounds for their preparation and related pharmaceutical compositions containing them” (priority 1981, dated 1984)
In brackets after ≈: the same amount, converted by molar mass.

Tests used:
[1] = tested on: Shigella sonnei LRP 5; test: Bacteriostatic power in solid medium (MIC); type: cell-based; conditions: LRP5, read-out: Minimum inhibiting concentration
In short: (§1)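 Bacteriostatic activity was measured as the minimum inhibiting concentration across a panel of bacterial stocks that spanned aerobic and anaerobic, Gram-positive and Gram-negative organisms.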

[2] = tested on: Acholeplasma laidlawii ATCC 23206 LRP 204; test: Bacteriostatic power in solid medium (MIC); type: cell-based; conditions: Acholeplasma laidlawii, ATCC23206; solid medium; read-out: Minimum inhibiting concentration
In short: as §1

[3] = tested on: Corynebacterium diphteriae LRP 24; test: Bacteriostatic power in solid medium (MIC); type: cell-based; conditions: Corynebacterium, LRP24, read-out: Minimum inhibiting concentration
In short: as §1

[4] = tested on: Haemophilus influenzae ATCC 19418 LRP 213; test: Bacteriostatic power in solid medium (MIC); type: cell-based; conditions: Haemophilus influenzae, ATCC19418, read-out: Minimum inhibiting concentration
In short: as §1

[5] = tested on: Staphylococcus aureus ATCC 6538P LRP 39; test: Bacteriostatic power in solid medium (MIC); type: cell-based; conditions: Staphylococcus aureus, ATCC6538P, read-out: Minimum inhibiting concentration
In short: as §1

[6] = tested on: Streptococcus faecalis subsp. zymogenes ATCC 12958 LRP 61; test: Bacteriostatic power in solid medium (MIC); type: cell-based; conditions: Enterococcus faecalis, ATCC12958, read-out: Minimum inhibiting concentration
In short: as §1

[7] = tested on: Micrococcus luteus ATCC 9341 LRP 6; test: Bacteriostatic power in solid medium (MIC); type: cell-based; conditions: Micrococcus luteus, ATCC9341, read-out: Minimum inhibiting concentration
In short: as §1

[8] = tested on: Escherichia coli LRP 50; test: Bacteriostatic power in solid medium (MIC); type: cell-based; conditions: Escherichia coli, LRP50, read-out: Minimum inhibiting concentration
In short: as §1

[9] = tested on: Pseudomonas aeruginosa LRP 9; test: Bacteriostatic power in solid medium (MIC); type: cell-based; conditions: Pseudomonas aeruginosa, LRP9, read-out: Minimum inhibiting concentration
In short: as §1

[10] = tested on: Staphylococcus aureus ATCC 6538P LRP 14; test: Bacteriostatic power in solid medium (MIC); type: cell-based; conditions: Staphylococcus aureus, ATCC6538P, read-out: Minimum inhibiting concentration
In short: as §1

[11] = tested on: Micrococcus luteus ATCC 15957 LRP 193; test: Bacteriostatic power in solid medium (MIC); type: cell-based; conditions: Micrococcus luteus, ATCC15957, read-out: Minimum inhibiting concentration
In short: as §1

[12] = tested on: Streptococcus pneumoniae ATCC 6303 LRP 35; test: Bacteriostatic power in solid medium (MIC); type: cell-based; conditions: Streptococcus pneumoniae, ATCC6303, read-out: Minimum inhibiting concentration
In short: as §1

[13] = tested on: Streptococcus pyogenes ATCC 8668 LRP 197; test: Bacteriostatic power in solid medium (MIC); type: cell-based; conditions: Streptococcus pyogenes, ATCC8668, read-out: Minimum inhibiting concentration
In short: as §1

[14] = tested on: Streptococcus pyogenes ATCC 8668 LRP 34; test: Bacteriostatic power in solid medium (MIC); type: cell-based; conditions: Streptococcus pyogenes, ATCC8668, read-out: Minimum inhibiting concentration
In short: as §1

[15] = tested on: Streptococcus pneumoniae ATCC 6303 LRP 52; test: Bacteriostatic power in solid medium (MIC); type: cell-based; conditions: Streptococcus pneumoniae, ATCC6303, read-out: Minimum inhibiting concentration
In short: as §1

[16] = tested on: Klelsiella pneumoniae LRP 54; test: Bacteriostatic power in solid medium (MIC); type: cell-based; conditions: read-out: Minimum inhibiting concentration
In short: as §1

[17] = tested on: Staphylococcus aureus ATCC 14154 LRP 78; test: Bacteriostatic power in solid medium (MIC); type: cell-based; conditions: Staphylococcus aureus, ATCC14154, read-out: Minimum inhibiting concentration
In short: as §1

[18] = tested on: Neisseria gonorrhoeae ATCC 19424 LRP 214; test: Bacteriostatic power in solid medium (MIC); type: cell-based; conditions: Neisseria gonorrhoeae, ATCC19424, read-out: Minimum inhibiting concentration
In short: as §1

[19] = tested on: Proteus vulgaris ATCC 6380 LRP 13; test: Bacteriostatic power in solid medium (MIC); type: cell-based; conditions: Proteus vulgaris, ATCC6380, read-out: Minimum inhibiting concentration
In short: as §1

[20] = tested on: Streptococcus pneumoniae ATCC 6303 LRP 53; test: Bacteriostatic power in solid medium (MIC); type: cell-based; conditions: Streptococcus pneumoniae, ATCC6303, read-out: Minimum inhibiting concentration
In short: as §1

[21] = tested on: Bacillus subtilis LRP 25; test: Bacteriostatic power in solid medium (MIC); type: cell-based; conditions: Bacillus subtilis, LRP25, read-out: Minimum inhibiting concentration
In short: as §1

[22] = tested on: Bacteroides fragilis ATCC 23745 LRP 205; test: Bacteriostatic power in solid medium (MIC); type: cell-based; conditions: Bacteroides fragilis, ATCC23745, read-out: Minimum inhibiting concentration
In short: as §1

[23] = tested on: Mycoplasma hominis I ATCC 14027 LRP 211; test: Bacteriostatic power in solid medium (MIC); type: cell-based; conditions: Metamycoplasma hominis, ATCC14027, read-out: Minimum inhibiting concentration
In short: as §1

[24] = tested on: Fusobacteriumnecrophroum ATCC 27852 LRP 210; test: Bacteriostatic power in solid medium (MIC); type: cell-based; conditions: read-out: Minimum inhibiting concentration
In short: as §1

[25] = tested on: Streptococcus faecalis LRP 7; test: Bacteriostatic power in solid medium (MIC); type: cell-based; conditions: Enterococcus faecalis, LRP7, read-out: Minimum inhibiting concentration
In short: as §1

[26] = Stability in acidic environment at 25° C. (half-life of initial microbiological activity); type: physicochemical; conditions: aqueous solution
Experimental: Stability in acidic environnment at 25° C. of the novel
Note: t 1/2 represents the time for reducing to one half the initial powe
of the antibiotic determined by microbiological method through diffusion
on a plate using the test stock Microccocus luteus (Sarcina lutea) ATCC

[27] = tested on: Staphylococcus aureus ATCC 6538 P LRP 39; test: Minimum bactericidal concentration (MBC); type: cell-based; conditions: Staphylococcus aureus, ATCC6538, read-out: Minimum bactericidal concentration (MBC)
Text: (§2) the bacterial power, expressed as the minimum bactericidal power (MBC) against some Gram positive aerobic stocks (table 5).

[28] = tested on: Corynebacterium diphteriae LRP 24; test: Minimum bactericidal concentration (MBC); type: cell-based; conditions: Corynebacterium, LRP24, read-out: Minimum bactericidal concentration (MBC)
Text: as §2

[29] = tested on: Streptococcus pneumoniae ATCC 6303 LRP 35; test: Minimum bactericidal concentration (MBC); type: cell-based; conditions: Streptococcus pneumoniae, ATCC6303, read-out: Minimum bactericidal concentration (MBC)
Text: as §2

[30] = tested on: Streptococcus pyogenes ATCC 8668 LRP 34; test: Minimum bactericidal concentration (MBC); type: cell-based; conditions: Streptococcus pyogenes, ATCC8668, read-out: Minimum bactericidal concentration (MBC)
Text: as §2

[31] = tested on: Streptococcus faecalis subs. zymogenes LRP 61; test: Minimum bactericidal concentration (MBC); type: cell-based; conditions: Enterococcus faecalis, read-out: Minimum bactericidal concentration (MBC)
Text: as §2

[32] = tested on: Salmonella typhy LRP 8; test: microbe, parasite or virus in culture; type: cell-based; conditions: LRP8, solid medium, read-out: Minimum inhibiting concentration
In short: as §1

[33] = tested on: Clostridium perfrigens ATCC 3624 LRP 206; test: microbe, parasite or virus in culture; type: cell-based; conditions: ATCC3624, solid medium, anaerobic, read-out: Minimum inhibiting concentration
In short: as §1

[34] = tested on: Staphylococcus aureus ATCC 6538 P LRP 39; test: Bacteriostatic power in liquid medium (MIC); type: cell-based; conditions: Staphylococcus aureus, ATCC6538, read-out: Minimum inhibiting concentration
In short: as §1

[35] = tested on: Corynebacterium diphteriae LRP 24; test: Bacteriostatic power in liquid medium (MIC); type: cell-based; conditions: Corynebacterium, LRP24, read-out: Minimum inhibiting concentration
In short: as §1

[36] = tested on: Streptococcus pneumoniae ATCC 6303 LRP 35; test: Bacteriostatic power in liquid medium (MIC); type: cell-based; conditions: Streptococcus pneumoniae, ATCC6303, read-out: Minimum inhibiting concentration
In short: as §1

[37] = tested on: Streptococcus pyogenes ATCC 8668 LRP 34; test: Bacteriostatic power in liquid medium (MIC); type: cell-based; conditions: Streptococcus pyogenes, ATCC8668, read-out: Minimum inhibiting concentration
In short: as §1

[38] = tested on: Streptococcus faecalis subs. zymogenes ATCC 12958 LRP 61; test: Bacteriostatic power in liquid medium (MIC); type: cell-based; conditions: Enterococcus faecalis, ATCC12958, read-out: Minimum inhibiting concentration
In short: as §1

[39] = Serum concentrations in the rat after oral administration; type: in vivo; conditions: rat, in vivo, po, 100 mg/kg
Experimental: administration of 100 mg/kg per os. The values, at the
several sampling times, correspond to mcg of product per ml of serum*.

For `CC[C@H]1OC(=O)[C@H](C)[C@@H](O[C@H]2C[C@@](C)(OC)[C@@H](O)[C@H](C)O2)[C@H](C)[C@@H](O[C@@H]2O[C@H](C)C[C@H](N(C)C)[C@H]2O)[C@](C)(O)C[C@@H](C)C(=O)[C@H](C)[C@@H](O)[C@]1(C)O` [Erythromycin A, reference compound], which MIC [1] is on record?
Its MIC is 12.5 µg/mL (≈ 17 µM).

What about the MIC [2] of the same molecule?
Its MIC is 0.097 µg/mL (≈ 0.132 µM).

What about the MIC [3] of the same molecule?
Its MIC is 6 ng/mL (≈ 0.00818 µM).

And the MIC [4]?
The MIC was 3.12 µg/mL (≈ 4.25 µM).

What about the MIC [5] of the same molecule?
Its MIC is 0.049 µg/mL (≈ 0.0668 µM).

And the MIC [6]?
Its MIC is 0.097 µg/mL (≈ 0.132 µM).

What about the MIC [7] of the same molecule?
The MIC was 6 ng/mL (≈ 0.00818 µM).

And the MIC [8]?
Its MIC is 6.25 µg/mL (≈ 8.52 µM).

What about the MIC [9] of the same molecule?
Its MIC is 25 µg/mL (≈ 34.1 µM).

What about the MIC [10] of the same molecule?
Its MIC is 0.049 µg/mL (≈ 0.0668 µM).

And the MIC [11]?
The MIC was 25 µg/mL (≈ 34.1 µM).

What about the MIC [12] of the same molecule?
Its MIC is 0.012 µg/mL (≈ 0.0164 µM).

What about the MIC [13] of the same molecule?
Its MIC is 0.012 µg/mL (≈ 0.0164 µM).

And the MIC [14]?
Its MIC is 0.012 µg/mL (≈ 0.0164 µM).

And the MIC [15]?
Its MIC is 0.012 µg/mL (≈ 0.0164 µM).

What about the MIC [16] of the same molecule?
The MIC was 12.5 µg/mL (≈ 17 µM).

And the MIC [17]?
Its MIC is 25 µg/mL (≈ 34.1 µM).

And the MIC [18]?
Its MIC is 0.049 µg/mL (≈ 0.0668 µM).

What about the MIC [19] of the same molecule?
Its MIC is 25 µg/mL (≈ 34.1 µM).

What about the MIC [20] of the same molecule?
The MIC was 0.012 µg/mL (≈ 0.0164 µM).

And the MIC [21]?
The MIC was 0.049 µg/mL (≈ 0.0668 µM).

And the MIC [22]?
The MIC was 0.195 µg/mL (≈ 0.266 µM).

What about the MIC [23] of the same molecule?
Its MIC is 25 µg/mL (≈ 34.1 µM).

And the MIC [24]?
Its MIC is 3.12 µg/mL (≈ 4.25 µM).

What about the MIC [25] of the same molecule?
Its MIC is 0.097 µg/mL (≈ 0.132 µM).

And the half-life ([26]; pH 2)?
The half-life was 2 min.

What about the half-life ([26]; pH 3) of the same molecule?
Its half-life is 6 min.

And the MBC [27]?
Its MBC is 1.56 µg/mL (≈ 2.13 µM).

What about the MBC [28] of the same molecule?
The MBC was 0.049 µg/mL (≈ 0.0668 µM).

What about the MBC [29] of the same molecule?
The MBC was 0.097 µg/mL (≈ 0.132 µM).

And the MBC [30]?
The MBC was 0.39 µg/mL (≈ 0.531 µM).

And the MBC [31]?
Its MBC is 6.25 µg/mL (≈ 8.52 µM).

And the MIC [32]?
Its MIC is 12.5 µg/mL (≈ 17 µM).

What about the MIC [33] of the same molecule?
Its MIC is 1.56 µg/mL (≈ 2.13 µM).

What about the MIC [34] of the same molecule?
The MIC was 0.097 µg/mL (≈ 0.132 µM).

And the MIC [35]?
The MIC was 0.012 µg/mL (≈ 0.0164 µM).

What about the MIC [36] of the same molecule?
The MIC was 0.024 µg/mL (≈ 0.0327 µM).

And the MIC [37]?
The MIC was 0.024 µg/mL (≈ 0.0327 µM).

What about the MIC [38] of the same molecule?
The MIC was 0.39 µg/mL (≈ 0.531 µM).

And the concentration at 2 h ([39]; 100 mg/kg per os, 2 hours)?
The concentration at 2 h was 1140 ng/mL.

What about the concentration at 0.5 h ([39]; Serum concentration, average) of the same molecule?
Its concentration at 0.5 h is 478 ng/mL.

What about the concentration at 1 h ([39]; Serum concentration, average) of the same molecule?
The concentration at 1 h was 534 ng/mL.

What about the concentration at 4 h ([39]; Serum concentration, average) of the same molecule?
Its concentration at 4 h is 262 ng/mL.

What about the concentration at 6 h ([39]; Serum concentration, average) of the same molecule?
The concentration at 6 h was 165 ng/mL.
